The values below come from PMC5736435 (European journal of medicinal chemistry, 2017).

Molecules are shown by their SMILES. In brackets after ≈: the same amount, converted by molar mass.

Data set [1] can be described thus: In vivo pharmacokinetics in rats. To be noted: rat.
Data set [2] has as its system human colorectal cells (HRT-18). The experiment in a line: In vitro cytotoxicity. The data set is classed as cell-based. To be noted: for safety margin: human, 2 h; for concentration not toxic to HRT-18 cells: MTS assay, two hours incubation. (In general: Formazan colour is commonly taken as a measure of viable cells.)
The test system of data set [3] is S. aureus NRS119. To be noted: cited from earlier work.
The nature of another data set: PBS solubility screen. The data set is classed as physicochemical.
For data set [4] the following is noted: phosphate-buffered saline; cited from earlier work.
Data set [5] concerns MRSA USA300. The data set is classed as cell-based, Staphylococcus aureus. To be noted: MRSA USA300, fourteen passages over two weeks.
The subject of another data set is BHK-21. The experiment in a line: In vitro cytotoxicity. The format is cell-based, hamster. To be noted: MTT assay.
The conditions of data set [6]: in vivo; cited from earlier work.
Data set [7] has as its system MRSA USA300. The experiment in a line: Time-kill assay against MRSA. The format is cell-based, Staphylococcus aureus.
The test system of a further data set is MRSA (2658 RCMB). The experiment in a line: MIC by broth microdilution against MRSA clinical isolate 2658 RCMB. The data set is classed as cell-based. To be noted: Staphylococcus aureus. On the technique in general: In broth dilution the organism is exposed to a series of concentrations in liquid medium.
A further data set relates to S. aureus NRS384. The data set is classed as cell-based, Staphylococcus aureus. The following applies: S. aureus NRS384, resistance to macrolides and tetracyclines.
Another data set relates to S. aureus NRS107. The experiment in a line: MIC by broth microdilution against mupirocin-resistant S. aureus NRS107. The data set is classed as cell-based, Staphylococcus aureus. To be noted: S. aureus NRS107, high-level resistance to mupirocin.
The test system of data set [8] is S. aureus NRS119. The experiment in a line: MIC by broth microdilution against linezolid-resistant S. aureus NRS119. The data set is classed as cell-based, Staphylococcus aureus. To be noted: S. aureus NRS119, resistance to linezolid.

With `CCCCc1ccc(-c2nc(C)c(/C(C)=N/NC(=N)N)s2)cc1` [Compound 1a, reference compound], in data set [1] (25 mg/kg oral dose), the “%F (oral bioavailability)” value is reported as “not bioavailable orally”. In addition, the safety margin in data set [2] is on record as 32 ×MIC.

For the compound `CC(=O)NC[C@H]1CN(c2ccc(N3CCOCC3)c(F)c2)C(=O)O1` [linezolid], in the data set with S. aureus NRS119 [3], the MIC is over 128 µg/mL.

As to `C/C(=N\NC(=N)N)c1sc(-c2ccc(-c3ccccc3)cc2)nc1C` [Compound 1b, reference compound], in “PBS solubility screen” (Solubility limit), the concentration in solution (solubility at 2 h) came to 2.2 µM (≈ 0.769 µg/mL). Besides, in [4], the “times less soluble than lead compound 1a” value is given as 24 times.

Regarding `Cc1nc(-c2ccc(-c3ccccc3)cc2)sc1-c1nnc(NC(=N)N)o1` [Compound 22, 1-{5-(2-([1,1′-Biphenyl]-4-yl)-4-methylthiazol-5-yl)-1,3,4-oxadiazol-2-yl}guanidine], in “PBS solubility screen”, the “improvement in aqueous solubility relative to pyrimidine analogue 1c” value was 43 times.

Consider `Cc1nc(-c2ccc(-c3ccccc3)cc2)sc1-c1nnc(NC(=N)N2CCOCC2)o1` [Compound 26, N-{5-(2-([1,1′-Biphenyl]-4-yl)-4-methylthiazol-5-yl)-1,3,4-oxadiazol-2-yl}morpholine-4-carboximidamide], for which the “shift in MIC over fourteen passages” value in the data set with MRSA USA300 [5] was “No increase in MIC”. Also, the “tolerability against non-cancerous cell line BHK-21” value with BHK-21 is on record as “highly tolerable”. In addition, the “concentration not toxic to HRT-18 cells” value in data set [2] was 256 µg/mL.

In the case of `CCC[C@H](NC(=O)[C@@H]1[C@H]2CCC[C@H]2CN1C(=O)[C@@H](NC(=O)[C@@H](NC(=O)c1cnccn1)C1CCCCC1)C(C)(C)C)C(=O)C(=O)NC1CC1` [telaprevir], the oral bioavailability in data set [6] is at most 3%.

Turning to `Cc1nc(-c2ccc(-c3ccccc3)cc2)sc1-c1nnc(NC(=N)N2CCN(C)CC2)o1` [Compound 27, N-{5-(2-([1,1′-Biphenyl]-4-yl)-4-methylthiazol-5-yl)-1,3,4-oxadiazol-2-yl}-4-methylpiperazine-1-carboximid-amide], the “MRSA CFU after 24 h” value with MRSA USA300 [7] (after 24 h, 4 × MIC, 37 °C) was “completely eradicated”. Besides, the “mode of action, bacteriostatic or bactericidal” value in the data set with MRSA USA300 [7] (at the concentration tested (4 × MIC)) is “bactericidal”. The same compound showed an MIC against MRSA (2658 RCMB) of 1.1 µg/mL (≈ 2.39 µM). Further, the “growth inhibition” value with S. aureus NRS384, in the data set on S. aureus NRS107 and in the data set with S. aureus NRS119 [8] was “inhibited growth” each time. The “Cmax relative to MIC against MRSA (2658 RCMB)” value in data set [1] (in vivo, po, 25 mg/kg) was “nearly six-fold”. The “shift in MIC over fourteen passages” value with MRSA USA300 [5] is reported as “No increase in MIC”. The “tolerability against non-cancerous cell line BHK-21” value with BHK-21 is listed as “highly tolerable”. For the same compound, in [2], the “concentration not toxic to HRT-18 cells” value is 512 µg/mL. The safety margin entry in data set [2] was “more than 400 ×MIC”.

As usually defined, the MIC is the least concentration at which growth counts as inhibited. As usually defined, the solubility is how much of the substance goes into solution per volume. A low value points to a poorly soluble substance.
